# Data: ChEMBL document CHEMBL3397020, “Synthesis of benzopentathiepin analogs and their evaluation as inhibitors of the phosphatase STEP” (Bioorg Med Chem Lett, 2015)
# Experiments:
# [1] = biological target: T1, Tyrosine-protein phosphatase non-receptor type 5 (Homo sapiens, UniProt P54829); experiment: Inhibition of STEP (unknown origin) pre-incubated for 10 mins before addition of p-nitrophenyl phosphate substrate in presence of 1 mM GSH
# T1 sequence (P54829 whole entry): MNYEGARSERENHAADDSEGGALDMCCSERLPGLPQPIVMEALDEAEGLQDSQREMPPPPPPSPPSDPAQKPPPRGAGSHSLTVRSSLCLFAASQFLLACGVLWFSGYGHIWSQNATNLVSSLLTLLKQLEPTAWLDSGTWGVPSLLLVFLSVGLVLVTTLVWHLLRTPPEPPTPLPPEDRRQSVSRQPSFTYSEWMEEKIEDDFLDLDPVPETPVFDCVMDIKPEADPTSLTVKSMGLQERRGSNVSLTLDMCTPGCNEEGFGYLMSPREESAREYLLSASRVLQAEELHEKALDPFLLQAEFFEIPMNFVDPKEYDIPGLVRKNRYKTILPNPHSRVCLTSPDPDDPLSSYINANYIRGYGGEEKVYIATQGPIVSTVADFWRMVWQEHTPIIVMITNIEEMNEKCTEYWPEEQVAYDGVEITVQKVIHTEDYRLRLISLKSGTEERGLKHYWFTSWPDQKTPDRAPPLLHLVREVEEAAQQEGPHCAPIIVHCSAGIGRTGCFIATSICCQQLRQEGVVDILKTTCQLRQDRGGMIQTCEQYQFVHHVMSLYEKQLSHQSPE
# [2] = biological target: T1, Tyrosine-protein phosphatase non-receptor type 5; experiment: Inhibition of STEP (unknown origin) in absence of GSH by p-nitrophenyl phosphate hydrolysis assay
# [3] = biological target: T1, Tyrosine-protein phosphatase non-receptor type 5; experiment: Inhibition of STEP (unknown origin) pre-incubated for 10 mins before addition of p-nitrophenyl phosphate substrate in absence of GSH
# [4] = biological target: T2, Tyrosine-protein phosphatase non-receptor type 5 (Homo sapiens) (UniProt P54829)
# T2 sequence (whole entry): T1 sequence (P54829 whole entry)
# Description: Inhibition of STEP (unknown origin) assessed as second-order rate constant for enzyme inactivation in absence of GSH by p-nitrophenyl phosphate hydrolysis assay
smiles,measurement,setting,value
O=C(Nc1cc(C(F)(F)F)cc2c1SSSSS2)C(F)(F)F,IC50,[1],15000 nM
same,Ki,[2],235 nM
same,IC50,[3],24 nM
same,Kinact,[4],0.0378 s⁻¹
